Results from patent US20250325491A1, “POLYVALENT MOLECULE BASED LIPID NANOPARTICLES FOR NUCLEIC ACID DELIVERY” (Bio-TRIP B.V., priority 2022, published 2025).

Key:
[1] = Cryo-TEM of nanoparticles; format: physicochemical; conditions: siRNA-aNPs containing the polyvalent material
Procedure: Size and shape of the nanoparticles was also assessed by cryo-transmission electron microscopy (cryo-TEM). The surface of 200-mesh lacey carbon supported copper grids (Electron Microscopy Sciences) was plasma charged for 40 seconds using a carbon coater (Cressington 208). Subsequently, 3 μl of nanoparticle sample (˜1 mg protein/ml) was pipetted on a grid and vitrified into a thin film by plunge vitrification in liquid ethane. This step was performed by using an automated robot (FEI Vitrobot Mark IV). Cryo-TEM imaging was acquired on the cryo-transmission electron microscope TITAN (Thermo Fisher), equipped with a field emission gun (FEG), a post-column Gatan imaging filter (model 2002) and a post-GIF 2 k×2 k Gatan CCD camera (model 794). The imaging was performed at 300 kV acceleration voltage in bright-field TEM mode with zero-loss energy filtering at 24,000× magnification (dose rate of 11.8 e−/Å2·s), and 1s acquisition time. Pictures and results are reported in Table S6, FIG. 7, FIG. 8, FIG. 9 (A), FIG. 15.

[2] = test system: RAW264.7 macrophage cells; test: In vitro Firefly luciferase expression (mRNA transfection); format: cell-based; conditions: 100 ng mRNA per well, 24 hours after transfection (FIG. 14)
Procedure: For the detection of Firefly luciferase expression in vitro, the ONE-Glo™ Luciferase Assay System (Promega) was used. RAW264.7 cells were seeded at a density of 35 k cells per well in a 96-well plate in 100 μL. After approximately 6 hours the RAW264.7 cells were transfected with 10 μL Firefly luciferase mRNA (RIBOPRO) using aNPs or LNPs at a dose of 100 ng mRNA per well. 24 hours after transfection, cell viability was determined by a CellTiter 96® AQueous One Solution Cell Proliferation assay (MTS) (Promega) assay. 10 μL reagent was added to the cells, and absorbance was measured at 495 nm after an hour of incubation (37° C., 5% CO2). Subsequently, the cells were washed three times with 1×PBS, and then 40 μL ONE-Glo™ Luciferase Assay Reagent was added to each well. After complete lysis of the cells, the cell lysates were transferred to a white flat bottom 96-well plate. Luminescence was measured using a Tecan Spark plate reader. Luciferase expression was expressed as luciferase intensity after normalization to the cell viability and subtracting background signal.

[3] = Dynamic light scattering (DLS) of nanoparticles; format: physicochemical
Procedure: The hydrodynamic diameter of the formulated particles was determined by a number-weighted mean diameter provided by dynamic light scattering (DLS) using a Zetasizer Nano ZS in combination with a Malvern Zetasizer NanoSampler (Malvern Instruments, Worcestshire, UK). The size dispersity was measured as the poly dispersity index (PDI). For the DLS measurements, 100 μl of the formulated nanoparticle was diluted into 700 μl of PBS (137 mM NaCl, 2.7 mM KCl, 10 mM Na2HPO4 and 1.8 mM KH2PO4) and equilibrated at room temperature before the analysis. Each sample was measured 5 times, 10 runs of each 10 seconds, at wavelength 633 nm, without fixing the attenuator and measurement position.

[4] = test system: Firefly luciferase in RAW264.7 cell line transfected with the pmirGLO plasmid; test: In vitro silencing (dose-response curve); conditions: RAW 264.7 cell line; siRNA-aNPs containing the polyvalent molecule vs DLin-MC3-DMA or ALC-0315 particles (FIG. 11)
Procedure: The in vitro silencing experiments were performed in a RAW264.7 cell line transfected with the pmirGLO plasmid (containing Renilla luciferase and Firefly luciferase expressing gene sequences). The cells were cultured until 80% confluency in a T75 cell culture flask. The cells were detached, counted, and seeded at 10000 cells/well in a 96-well plate. After overnight resting, the cells were transfected with nanoparticles containing anti Firefly luciferase siRNA at a range of concentrations. After 48-hour incubation, the old medium was washed off with 1×PBS. Lysate phosphate buffer (Dual-Luciferase® Reporter Assay System, Promega) was added to lyse the cells. […] Subsequently, 40 μl of ONE-Glo™ reagent (Dual-Luciferase® Reporter Assay System, Promega) was added and luminescence was measured with a Tecan Spark® microplate reader at an integration time of 500 ms, and settle time of 1000 ms. Since the luminescence peak should be in the range of 550-570 nm, a luminescence scan was performed to confirm the wavelength. Next, 40 μl of Stop and Glo reagent (Dual-Luciferase® Reporter Assay System, Promega) was added to each well and the luminescence was measured again in the same way. The relative remaining Firefly luciferase luminescence was calculated. First, the Firefly luminescence was normalized with the Renilla luminescence. […]

[5] = mRNA recovery, entrapment and retention by Ribogreen assay; format: physicochemical; conditions: mRNA-aNPs containing the polyvalent material; for Retention of mRNA: retention = recovery x entrapment
Procedure: The Quant-iT RiboGreen assay (Thermo Fisher) was used to quantify the amount of siRNA loaded inside the formulated particles. The assay was performed using a black 96-well plate. The formulation sample with a theoretical siRNA concentration of 133.3 μg/mL, was diluted 200 times in TE buffer (10 mM Tris-HCl, 1 mM, EDTA, pH 7.5 in DEPC-treated water) and with a TE buffer containing 2% Triton™ X-100, in a black 96-well plate to a total volume of 100 μl. The Triton detergent will disrupt the lipid-based nanoparticles; therefore, all siRNA (retained plus unretained) becomes accessible for the Quant-iT RiboGreen reagent. Controls of siRNA of known concentration (28.6 μg/mL) were diluted 53.3 times in both TE buffer and TE buffer containing 2% Triton in a 96-well plate to a total volume of 100 μl. Next, RiboGreen reagent was diluted 200 times with TE buffer and with TE buffer containing Triton. 100 μl of this dilution was added to each well containing sample or control to bring the total volume in the plate to 200 μl. Subsequently, the samples' fluorescence was measured on a Tecan Spark® microplate reader at an excitation wavelength of 480 nm and emission wavelength of 520 nm.
This was done in a similar way as described for determining the siRNA encapsulation efficiency.

RAW 264.7 cell line = test: MTS cytotoxicity assay; format: cell-based; conditions: RAW 264.7 cell line exposed to siRNA-aNPs with increasing amounts of the polyvalent molecule (FIG. 10)
Procedure: MTS assays were carried out on multiple apolipoprotein nanoparticles (aNPs) of the invention. These assays were executed in line with protocols that are known in the art.

[6] = mRNA-aNPs containing the polyvalent material, in vitro experiment formulation
[7] = mRNA-aNPs containing the polyvalent material, in vivo experiment formulation
[8] = siRNA-aNPs containing A2, N/P = 6, High Cholesterol (3.37 mg)
[9] = siRNA-aNPs containing A2, N/P = 6, Low Cholesterol (0.54 mg)
[10] = siRNA-aNPs containing A2, N/P = 6, Low Triglyceride (5 mg)
[11] = siRNA-aNPs containing A2, N/P = 6, No Triglyceride
[12] = siRNA-aNPs containing A2, N/P = 6, phospholipid DMPC
[13] = siRNA-aNPs containing A2, N/P = 6, phospholipid DPPC
[14] = siRNA-aNPs containing A2, N/P = 6, phospholipid DSPC
[15] = siRNA-aNPs containing A2, N/P = 6, phospholipid POPC
[16] = siRNA-aNPs containing A2, composition as Table S3 except N/P = 3
[17] = siRNA-aNPs containing A2, composition as Table S3 except N/P = 9
[18] = siRNA-aNPs containing the polyvalent material (Table S3), SD over individual repeats
[19] = formulation for in vitro experiment (Table S8)
[20] = formulation for in vivo experiment (Table S8)

CCCCCCCCOC(=O)CCN(CCCN(CCCCN(CCCN(CCC(=O)OCCCCCCCC)CCC(=O)OCCCCCCCC)CCCN(CCC(=O)OCCCCCCCC)CCC(=O)OCCCCCCCC)CCCN(CCC(=O)OCCCCCCCC)CCC(=O)OCCCCCCCC)CCC(=O)OCCCCCCCC [Example A2, G1-ACR-nC8-8]
Cryo-TEM Diameter ([1]; SD over n individual particles): 55 ± 11 nm
Cryo-TEM PDI ([1]; n individual particles): 0.04
Luminescence intensity after Firefly luciferase mRNA transfection, compared with ALC-0315 LNP and aNP controls [2]: outperform the reference LNP and aNP particles
DLS Hydrodynamic diameter (number mean) [3, 6]: 53 nm
DLS PDI [3, 6]: 0.27
DLS Hydrodynamic diameter (number mean) [3, 7]: 63 nm
DLS PDI [3, 7]: 0.08
DLS Hydrodynamic diameter [3, 8]: 103 nm
DLS PDI [3, 8]: 0.24
DLS Hydrodynamic diameter [3, 9]: 95 nm
DLS PDI [3, 9]: 0.07
DLS Hydrodynamic diameter [3, 10]: 60 nm
DLS PDI [3, 10]: 0.08
DLS Hydrodynamic diameter [3, 11]: 122 nm
DLS PDI [3, 11]: 0.16
DLS Hydrodynamic diameter [3, 12]: 91 nm
DLS PDI [3, 12]: 0.18
DLS Hydrodynamic diameter [3, 13]: 61 nm
DLS PDI [3, 13]: 0.08
DLS Hydrodynamic diameter [3, 14]: 60 nm
DLS PDI [3, 14]: 0.07
DLS Hydrodynamic diameter [3, 15]: 123 nm
DLS PDI [3, 15]: 0.08
DLS Hydrodynamic diameter [3, 16]: 173 nm
DLS PDI [3, 16]: 0.79
DLS Hydrodynamic diameter [3, 17]: 62 nm
DLS PDI [3, 17]: 0.24
nanoparticle diameter, all composition variations of Table S7 ([3]; siRNA-aNPs containing A2, in all cases): with diameters smaller than 200 nm are formed.
DLS Hydrodynamic diameter (number mean) [3, 18]: 57 ± 6 nm
DLS PDI [3, 18]: 0.16 ± 0.03
silencing potency compared with reference aNPs or LNPs (dose response curve) [4]: higher potency than the reference aNPs or LNPs
Entrapment of mRNA [5, 19]: 87%
Recovery of mRNA [5, 19]: 27%
Retention of mRNA [5, 19]: 23%
Entrapment of mRNA [5, 20]: 88%
Recovery of mRNA [5, 20]: 57%
Retention of mRNA [5, 20]: 50%
cytotoxicity (MTS assay) (RAW 264.7 cell line): do not exercise cytotoxicity
